Data published in patent US20130302362A1, “Immunomodulatory Compositions, Methods and Systems Comprising Immunogenic Fragments of ApoB-100” (CEDARS-SINAI MEDICAL CENTER, priority 2010, published 2013).

How the values were obtained:
CD11c(+) dendritic cells = experiment: Flow cytometric analysis of dendritic cells at immunization site and lymph nodes; type: in vivo, mice; details: 1 week after the third immunization; compared with cBSA/alum group
Experimental: (§1) Flow cytometric analysis was performed using standard protocols with antibodies listed in Table 1 below and a FACScan (Becton Dickinson) or a CyAn ADP analyzer (Beckman Coulter). For intracellular cytokine staining, Brefeldin A (3 μg/ml) was added to the cultured cells for 2 hours before cells subject to staining procedure. Cell membranes were permeabilized for staining intracellular molecules.
Since DCs are the major cell type upstream to both cellular and humoral immune responses, Applicants determined if these cells were affected by the immunization strategy. […]

Male apoE (−/−) mice = experiment: p210 immunization, aortic atherosclerosis (en face Oil Red O; aortic sinus immunohistochemistry); type: in vivo
From the text: Selection of peptides and their preparation for immunization The establishment and screening of human apoB-100 peptides has been reported (8). Based on Applicants pilot experiments and prior reports, see references (9),(10) Applicants selected peptide 210 (p210, KTTKQ SFDLS VKAQY KKNKH—SEQ ID NO: 210) as a candidate immunogen. Native p210 peptide (Euro-Diagnostica AB, Sweden) was conjugated to cationic bovine serum albumin (cBSA) as carrier using a method described previously see references (3), (4) Alum was used as adjuvant and mixed with peptide/cBSA conjugate with 1:1 ratio in volume. Peptide conjugation and mixing with alum were prepared fresh prior to each immunization.
Male apoE (−/−) mice (Jackson Laboratories) were housed in an animal facility accredited by the American Association of Accreditation of Laboratory Animal Care and kept on a 12-hour day/night cycle with unrestricted access to water and food. The Institutional Animal Care and Use Committee of Cedars-Sinai Medical Center approved the experimental protocols. […] Mice, maintained on normal chow diet, received subcutaneous primary immunization in the dorsal area between scapulas at 6-7 weeks of age, followed by a booster at 9 and 12 weeks of age. One week after last booster, diet was switched to high cholesterol chow (TD 88137, Harlan-Teklad) and continued until euthanasia at the age of 25 weeks. Separate groups of mice receiving PBS or cBSA/alum at the same immunization time-points served as control. Some mice were sacrificed at 8 or 13 weeks of age to assess immune response against p210.
At euthanasia the hearts were harvested and embedded in OCT compound (Tissue-Tek) for cryo-section. Whole aortas were cleaned, processed and stained with Oil Red 0 to assess the extent of atherosclerosis en face with computer-assisted histomorphometry, see references (3),(4).
The sections from aortic sinus were stained with MOMA-2 (Serotec), or CD11c (eBioscience) antibody to identify macrophages or dendritic cells immunohistochemically using standard protocol. Oil-Red-O stain for plaque size was done using standard protocol. […]

atherosclerosis = details: immunization with peptide or peptide combination; WO 02/080954 Table B; cited from earlier work
bone marrow derived DCs = experiment: Cytolytic activity of CD8(+) T-cells from immunized mice against dendritic cells in vitro; type: cell-based
Experimental: (§2) The method for generating BMDC with GM-CSF was adapted from previous publication with modification see reference (19). Briefly, bone marrow cells from femurs and tibiae of male apoE−/− mice were plated into 10 cm culture plates (Falcon) with 20 ml complete RPMI-1640 containing 10 ng/ml GM-CSF (R&D Systems) and 10 ng/ml IL-4 (Invitrogen). Cells were washed and fed on day 3 and day 5 by removing the old medium followed by replenishing with fresh culture medium with GM-CSF and IL-4. On day 8, the immature DC appeared as non-adherent cells under the microscope and harvested by vigorous pipetting and subcultured into new culture plates with 2×10^5 DCs in 1.5 ml medium.
CD8(+) T-cells were negatively isolated using a CD8 selection Dynabeads kit (Invitrogen) per manufacturer's protocol. […] After co-culture for 4 hours, cells were collected and processed for flow cytometric determination of CD11c and 7-AAD by LSR II flow cytometer (BD Biosciences) and data was analyzed with Summit V4.3 software. Dendritic cell death without CD8(+) T-cells in the co-culture was used as baseline and percentage of specific lysis of cells was calculated using a method described previously, see reference (20). […]
Applicants therefore assessed the effect of the vaccine on cytotoxic activity of CD8^+ T cells against syngeneic bone marrow-derived DCs. […]

KLH = KLH immunization after p210 immunization, KLH IgG titer; type: in vivo, Male C57/BL6 mice; details: prior p210 immunization vs PBS or cBSA/alum; 100 μg KLH s.c. at 13 and 15 weeks
From the text: (§3) The coating concentration was optimized in pilot experiments.

AT1 receptor (AT1R) = experiment: Aortic AT1 receptor expression by Western blot (AngII model); type: in vivo, mice; details: ± SEM; N = 6
Male apoE KO mice [1] = experiment: Blood pressure and heart rate in AngII-infused immunized mice; type: in vivo
Experimental: Saline was delivered to the control group.
Angiotensin II infusion via implanted osmotic pump was started at 10 weeks of age. Mice were euthanized at 14 weeks of age. Blood pressure was measured throughout the duration of experiment.

BMDCs = experiment: Endocytosis of FITC-labeled p210 by DCs in vitro; type: cell-based, mice; details: p210 labeled with FITC; FITC fluorescence in BMDCs
Experimental: as §2
Peptide loading on BMDCs was defined using p210 labeled with FITC (FITC conjugating kit from Pierce).

superoxide = experiment: Aortic superoxide production by in situ dihydroethidine method (AngII model); type: in vivo, mice; details: ± SEM; N = 9
[2] = system: naïve male apoE (−/−) recipient mice; experiment: Adoptive transfer of lymphocytes from immunized donors, aortic atherosclerosis in recipients; type: in vivo; details: 2×10^7 donor B-cells/mouse
From the text: Male apoE (−/−) mice on regular chow received subcutaneous immunization as described in previous paragraph and were sacrificed at 13 weeks of age as donors. Splenocytes from the same treatment group were pooled before cell isolation. Donor CD8(+) T-cells, CD4(+)CD25(+) T-cells or B-cells were isolated using Dynabeads FlowComp (Invitrogen) according to the manufacturer's protocols. CD4(+) T-cells were negatively selected from the splenocytes followed by positive selection of CD4(+)CD25(+) cells. B cells were negatively isolated whereas CD8(+) T-cells were positively isolated first and released from beads. The purity of pooled CD8(+) T-cells, CD4(+)CD25(+) T-cells and B-cells was 90%, 80% and 70%, respectively. The isolated CD8(+) T-cells (1×10^6 cells/mouse), CD4(+)CD25(+) T-cells (1×10^5 or 3×10^5 cells/mouse) or B-cells (2×10^7 cells/mouse) were then adoptively transferred to naïve male apoE (−/−) recipient mice at 6-7 weeks of age via tail vein injection. In the published literatures of vascular biology, the number of adoptively transferred lymphocytes varied greatly. For B-cells transfer, the number of 2×10^7 cells/mouse was chosen based on two prior reports, see references (11),(12). For CD4(+)CD25(+) T-cells transfer, the number of cells transferred ranged from 5×10^4 cells/mouse to 1×10^6 cells/mouse in the published literature see references (13),(14),(15). […]

TNP = experiment: TNP-LPS immunization after p210 immunization, TNP IgG titer; type: in vivo, Male C57/BL6 mice; details: prior p210 immunization vs PBS or cBSA/alum; 100 μg TNP-LPS i.p.
From the text: as §3

CD8^+ CD25^− T cells = experiment: Presentation of p210 by DCs to CD8+ CD25− T cells in vitro; type: cell-based, mice; details: 48 hours; DCs loaded with p210 and treated with LPS; compared to untreated or LPS only
From the text: The p210 peptide contains the proteoglycan binding site of the apoB-100 molecule. This peptide is a cell-penetrating peptide capable of efficiently delivering antigens for cross-presentation to cytotoxic CD8^+ T cells.^53 Applicants therefore assessed activation of CD8^+ CD25^− T cells co-cultured with DCs loaded with p210 and matured with LPS.

[3] = system: IFN-γ expression of dendritic cells (DCs); experiment: Flow cytometric analysis of intracellular IFN-γ expression of dendritic cells (AngII model); type: in vivo, mice; details: ± SEM of CD11c-gated cells
Granzyme B = Granzyme B level in CD8(+) T-cells from immunized mice; type: cell-based; details: compared to PBS or cBSA/alum group
Experimental: as §1

Perforin = Perforin level in CD8(+) T-cells from immunized mice; type: cell-based; details: compared to PBS or cBSA/alum group
Experimental: as §1

Male apoE KO mice [4] = experiment: AngII-induced aortic aneurysm formation, rupture and survival after immunization
Experimental: Fourteen P210, 17 cBSA, 16 PBS, and 8 Saline injected mice were examined.
AngII (1000 ng/Kg/min) was delivered by a subcutaneous osmotic pump implanted at 10 weeks of age for 4 weeks to cause aneurysms in all three groups. Saline was delivered to the control group. Mice were sacrificed at 14 weeks of age of age. The mice were fed normal chow for the duration of experiment.
42 P210, 46 cBSA, 37 PBS, and 8 Saline injected mice were examined.
AngII (1000 ng/Kg/min) was delivered by a subcutaneous osmotic pump implanted at 10 weeks of age for 4 weeks to cause aneurysms in all three groups. Saline was delivered to the control group. Mice were sacrificed at 14 weeks of age of age. The male apoE KO mice were fed normal chow for the duration of experiment.
AngII (1000 ng/Kg/min) was delivered by a subcutaneous osmotic pump implanted at 10 weeks of age for 4 weeks to cause aneurysms in all three groups. Saline was delivered to the control group. Mice were sacrificed at 14 weeks of age of age. 42 P210, 46 cBSA, 37 PBS, and 8 Saline injected mice were examined. Mice were sacrificed at 14 weeks of age. The male apoE KO mice were fed normal chow for the duration of experiment.
At 10 weeks of age, mice were subcutaneously implanted with an osmotic pump which released AngII (1 mg/Kg/min), and were euthanized 4 weeks later.

[5] = 100 μg s.c., three immunizations, high cholesterol chow, euthanasia at 25 weeks
[6] = AngII pump 4 weeks, total 14 p210, 17 cBSA

## KTTKQ SFDLS VKAQY KKNKH (KTTKQSFDLSVKAQYKKNKH) [p210]
CD11c(+) dendritic cells
  CD11c(+)CD86(+) cells in lymph nodes: reduced CD11c(+)CD86(+) cells in lymph nodes
Male apoE (−/−) mice; [5]
  reduction of aortic atherosclerosis compared to PBS group: 57%
  reduction of aortic atherosclerosis compared to cBSA/Alum group: 50%
Male apoE (−/−) mice; pilot experiment, 100 μg dose compared to 25 or 50 μg dose
  athero-reduction, dose comparison: optimum athero-reduction
atherosclerosis
  percentage reduction (atherosclerosis): 57.9%
Bone marrow derived DCs; CD8:DC 3:1, 4 hours, 10% FBS, CD11c-gated cells, N = 11
  percent lysis relative to basal lysis, Normal medium: significantly increased the percentage of DC death
Bone marrow derived DCs; FIG. 15, panel B
  cytolytic activity of CD8+ T cells after depletion of CD25+ cells: abrogated the increased cytolytic activity
KLH
  KLH-IgG titer: no difference
AT1 receptor (AT1R)
  Aortic AT1R: 1.0 ± 0.2 arbitrary densitometric unit
Male apoE KO mice [1]; 4 weeks after pump implantation (FIG. 11)
  reduction in blood pressure: ~11%
Male apoE KO mice [1]; 4 weeks after pump implantation (FIG. 12A)
  change in heart rate: ~7%
Male apoE KO mice [1]; ± SEM at 13 weeks of age, p210 N = 9, cBSA N = 7
  Mean Arterial Blood Pressure (BP): 124 ± 4 mmHg
BMDCs
  uptake of FITC-labeled p210 by dendritic cells: uptake of p210 by dendritic cells
superoxide
  Aortic superoxide production: 1.1 ± 0.1 arbitrary fluorescent intensity unit
[2]
  atherosclerosis in recipients of B cells: did not affect atherosclerosis
TNP
  TNP-IgG titer: no difference
CD8^+ CD25^− T cells
  CD8+ CD25+ T cells after co-culture with p210-loaded DCs: significantly increased CD8^+ CD25^+ T cells
[3]; N = 6
  LN CD11c+CD86+IFN-γ+ DCs: 26.7 ± 1.6 percentage
[3]; N = 8
  Spleen CD11c+CD86+IFN-γ+ DCs: 19.5 ± 1.6 percentage
Granzyme B
  Granzyme B level in CD8(+) T-cells: higher level of Granzyme B
Perforin
  perforin level in CD8(+) T-cells: no difference in perforin level
Male apoE KO mice [4]; 8 aortic segments, AngII pump
  Aneurysmal segment/total segment (%): 14.3%
Male apoE KO mice [4]; 28 days after osmotic pump implantation for Ang II infusion, 42 P210, 46 cBSA mice
  Survival at 28 days: 90.5%
Male apoE KO mice [4]; Ang II pump, 42 P210, 46 cBSA mice
  Aneurysm incidence: 54.8%
Male apoE KO mice [4]; [6]
  Aneurysm (include Rupture) (number of mice): 8
  Rupture (number of mice): 1
  Rupture incidence (%, total): 7.1%
  alive (number of mice): 13

## EEEML ENVSL VCPKD ATRFK (EEEMLENVSLVCPKDATRFK) [p1]
atherosclerosis
  percentage reduction (atherosclerosis): 31%

## IEIGL EGKGF EPTLE ALFGK (IEIGLEGKGFEPTLEALFGK) [p45]
atherosclerosis
  percentage reduction (atherosclerosis): 47.4%

## HTFLI YITEL LKKLQ STTVM (HTFLIYITELLKKLQSTTVM) [p301]
atherosclerosis
  percentage reduction (atherosclerosis): 55.2%
